Measured values published in patent US8846711B2, “Heterocyclic acrylamides and their use as pharmaceuticals” (Fab Pharma S.A.S., priority 2009, dated 2014).
≈ marks a conversion by molar mass, not a printed value.

Columns and labels:
S. aureus ATCC 29213 = assay: MIC determination using susceptibility method (broth microdilution); format: cell-based; conditions: Staphylococcus aureus, ATCC29213, read-out: MIC (μg/ml) S. aureus ATCC 29213
Procedure: (§1) Minimum inhibitory concentrations (MICs) were determined by broth microdilution according to CLSI guidelines (CLSI, M100-20^1, M7-A8^2, M27-A3^3). The compounds were tested in the range from […]. Colonies were taken directly from a second-pass culture plate and prepared to a suspension equivalent to the 0.5 McFarland standard using normal saline. […] The panels were incubated at 35° C. for 16 to 20 hours before reading the MIC endpoints. The compounds of Examples 12, 29, 59, 63 and 66-71 were dissolved in DMSO to make the initial solutions of 5120 μg/ml. These solutions were diluted 1:10 in sterile water to a stock solution of 512 μg/ml. The stock solutions were further diluted into the appropriate broth medium for the sequential dilutions used in the broth microdilution panels. S. pneumoniae was tested in Mueller Hinton (MH) broth with 3% lysed horse blood and C. albicans was tested in RPMI-1640 medium. All other organisms were tested in MH broth.

C. albicans (ATCC 90028) = assay: as above; format: cell-based; conditions: Candida albicans, ATCC90028, read-out: MIC (μg/ml) C. albicans (ATCC 90028)
Procedure: as §1

[1] = system: S. pneumoniae (ATCC 49619); assay: as above; format: cell-based; conditions: Streptococcus pneumoniae, ATCC49619, read-out: MIC (μg/ml) S. pneumoniae (ATCC 49619)
Procedure: as §1

E. faecalis (ATCC 29212) = assay: as above; format: cell-based; conditions: Enterococcus faecalis, ATCC29212, read-out: MIC (μg/ml) E. faecalis (ATCC 29212)
Procedure: as §1

E. coli (ATCC 25922) = assay: as above; format: cell-based; conditions: Escherichia coli, ATCC25922, read-out: MIC (μg/ml) E. coli (ATCC 25922)
Procedure: as §1

MRSA (IHMA #510059) = assay: as above; format: cell-based; conditions: Staphylococcus aureus, read-out: MIC (μg/ml) MRSA (IHMA #510059)
Procedure: as §1

MSSA (IHMA #555189) = assay: as above; format: cell-based; conditions: Staphylococcus aureus, read-out: MIC (μg/ml) MSSA (IHMA #555189)
Procedure: as §1

[2] = molecular target: recombinant S. aureus FabI enzyme (Staphylococcus aureus (strain MRSA252), UniProt Q6GI75); assay: FabI inhibition, fluorescence based assay; format: biochemical; conditions: in vitro
Procedure: Compound inhibitory activity of FabI enzyme is measured in vitro by the […] determination using a fluorescence based assay.
The protein FabI from S. aureus is prepared and purified using standard methods for recombinant protein expression after cloning of the gene in a prokaryotic expression vector.
The biochemical activity of the FabI enzyme is assessed using the following method.
The assay buffer “AB” contained 50 mM ADA (N-(2-acetamido)iminodiacetic acid monosodium salt) pH 6.5, 1 mM dithiothreitol, 0.006% Triton-X100 and 50 mM NaCl.
The following components are added in a white polystyrene Costar plate (Ref 3912) up to a final volume of 55.5 μL: 1.5 μL DMSO or inhibitor dissolved in DMSO and 54 μL of a FabI/NADPH/NADP+ mixture in AB. After 60 min of pre-incubation at room temperature, the reaction is started by addition of 5 μL of trans-2-octenoyl N-acetylcysteamine thioester (t-o-NAC) to a final volume of 60.5 μL. This reaction mixture is then composed of 2 nM FabI, 40 μM NADPH (Sigma, N7505), 10 μM NADP+ (Sigma, N5755), 100 μM t-O-NAC and compound at defined concentration. Fluorescence intensity of NADPH (λex=360 nm, […]) is measured immediately after t-O-NAC addition (T0), and approximately 50 min later (T50) by a Fluostar Optima (BMG) so as to achieve ±30% of NADPH conversion. Enzyme activity is calculated by first subtracting TO signal to T50 and then subtracting background signal (FabI=0). Percentages of inhibition are calculated against untreated samples (Inhibitor=0) and IC50 are fitted to a classical Langmuir equilibrium model using XLFIT (IDBS).

## CN1CCC2(CC1)Cc1cc(/C=C/C(=O)N3CC(OCCc4cccs4)C3)cnc1NC2=O [Example 66, (E)-1′-Methyl-6-(3-oxo-3-(3-(2-(thiophen-2-yl)ethoxy)azetidin-1-yl)prop-1-en-1-yl)-1H-spiro[[1,8]naphthyridine-3,4′-piperidin]-2(4H)-one]
S. aureus ATCC 29213
  MIC: 0.25 µg/mL (≈ 0.536 µM)
C. albicans (ATCC 90028)
  MIC: 64 µg/mL (≈ 137 µM)
[1]
  MIC: 64 µg/mL (≈ 137 µM)
E. faecalis (ATCC 29212)
  MIC: 64 µg/mL (≈ 137 µM)
E. coli (ATCC 25922)
  MIC: 64 µg/mL (≈ 137 µM)
MRSA (IHMA #510059)
  MIC: 0.5 µg/mL (≈ 1.07 µM)
MSSA (IHMA #555189)
  MIC: 0.25 µg/mL (≈ 0.536 µM)

## O=C1CCc2cc(/C=C/C(=O)N3CCC(COc4ccc(F)cc4)CC3)cnc2N1 [Example 5, 6-[(1E)-3-{[4-(4-Fluorophenoxy)methyl]piperidin-1-yl}-3-oxoprop-1-en-1-yl]-3,4-dihydro-1,8-naphthyridin-2(1H)-one]
[2]
  IC50: 250 nM

## CCCCCS(=O)(=O)C1CN(C(=O)/C=C/c2cnc3c(c2)CCC(=O)N3)C1 [Example 22, 6-{(1E)-3-[3-(Pentylsulfonyl)azetidin-1-yl]-3-oxoprop-1-en-1-yl}-3,4-dihydro-1,8-naphthyridin-2(1H)-one]
[2]
  IC50: 8600 nM

## O=C1CCc2cc(/C=C/C(=O)N3CCCC3)cnc2N1 [Example 2, 6-[(1E)-3-Oxo-3-pyrrolidin-1-ylprop-1-en-1-yl]-3,4-dihydro-1,8-naphthyridin-2(1H)-one]
[2]
  IC50: 5500 nM

## O=C1CCc2cc(/C=C/C(=O)N3CCCCC3)cnc2N1 [Example 3, 6-[(1E)-3-Oxo-3-piperidin-1-ylprop-1-en-1-yl]-3,4-dihydro-1,8-naphthyridin-2(1H)-one]
[2]
  IC50: 9900 nM

## O=C1CCc2cc(/C=C/C(=O)N3CCC3)cnc2N1 [Example 1, 6-[(1E)-3-Azetidin-1-yl-3-oxoprop-1-en-1-yl]-3,4-dihydro-1,8-naphthyridin-2(1H)-one]
[2]
  IC50: 11000 nM

## O=C1CCc2cc(/C=C/C(=O)N3CC(OCc4nccs4)C3)cnc2N1 [Example 20, 6-{(1E)-3-Oxo-3-[3-(1,3-thiazol-2-ylmethoxy)azetidin-1-yl]prop-1-en-1-yl}-3,4-dihydro-1,8-naphthyridin-2(1H)-one]
[2]
  IC50: 57 nM

## O=C1CCc2cc(/C=C/C(=O)N3CCC(CCO)CC3)cnc2N1 [Example 4, 6-{(1E)-3-[4-(2-Hydroxyethyl)piperidin-1-yl]-3-oxoprop-1-en-1-yl}-3,4-dihydro-1,8-naphthyridin-2(1H)-one]
[2]
  IC50: 5300 nM

## O=C1Nc2ncc(/C=C/C(=O)N3CCC(COc4ccc(F)cc4)CC3)cc2CC1CO (stereo not shown) [Example 28, 3-(Hydroxymethyl)-6-[(1E)-3-{4-[(4-fluorophenoxy)methyl]piperidin-1-yl}-3-oxoprop-1-en-1-yl]-3,4-dihydro-1,8-naphthyridin-2(1H)-one]
[2]
  IC50: 81 nM

## O=C1CCc2cc(/C=C/C(=O)N3CC(OCc4ccccc4)C3)cnc2N1 [Example 17, 6-{(1E)-3-[3-(Benzyloxy)azetidin-1-yl]-3-oxoprop-1-en-1-yl}-3,4-dihydro-1,8-naphthyridin-2(1H)-one]
[2]
  IC50: 50 nM

## Cc1nc(C2CCCCN2C(=O)/C=C/c2cnc3c(c2)CCC(=O)N3)no1 (stereo not shown) [Example 13, 6-{(1E)-3-[2-(5-Methyl-1,2,4-oxadiazol-3-yl)piperidin-1-yl]-3-oxoprop-1-en-1-yl}-3,4-dihydro-1,8-naphthyridin-2(1H)-one]
[2]
  IC50: 4100 nM

## O=C1CCc2cc(/C=C/C(=O)N3CCCC(COc4ccc(F)cc4)C3)cnc2N1 (stereo not shown) [Example 9, 6-[(1E)-3-{[3-(4-Fluorophenoxy)methyl]piperidin-1-yl}-3-oxoprop-1-en-1-yl]-3,4-dihydro-1,8-naphthyridin-2(1H)-one]
[2]
  IC50: 1300 nM

## O=C1CCc2cc(/C=C/C(=O)N3CCCC[C@@H]3c3nc4ccccc4o3)cnc2N1 [Example 18, 6-{(1E)-3-[2-(1,3-Benzoxazol-2-yl)piperidin-1-yl]-3-oxoprop-1-en-1-yl}-3,4-dihydro-1,8-naphthyridin-2(1H)-one]
[2]
  IC50: 1800 nM

## O=C1CCc2cc(/C=C/C(=O)N3CCCC3c3ccccc3)cnc2N1 (stereo not shown) [Example 7, 6-[(1E)-3-Oxo-3-(2-phenylpyrrolidin-1-yl)prop-1-en-1-yl]-3,4-dihydro-1,8-naphthyridin-2(1H)-one]
[2]
  IC50: 7100 nM

## CC(=O)Nc1ccc(/C=C/C(=O)N2CC(OCc3ccncc3)C2)cn1 [Example 24, N-(5-{(1E)-3-Oxo-3-[3-(pyridin-4-ylmethoxy)azetidin-1-yl]prop-1-en-1-yl}pyridin-2-yl)acetamide]
[2]
  IC50: 260 nM

## C=C(C)COC1CN(C(=O)/C=C/c2cnc3c(c2)CCC(=O)N3)C1 [Example 19, 6-[(1E)-3-{3-[(2-Methylprop-2-en-1-yl)oxy]azetidin-1-yl}-3-oxoprop-1-en-1-yl]-3,4-dihydro-1,8-naphthyridin-2(1H)-one]
[2]
  IC50: 170 nM

## Cc1nc(C2CN(C(=O)/C=C/c3cnc4c(c3)CCC(=O)N4)C2)no1 [Example 11, 6-{(1E)-3-[3-(5-Methyl-1,2,4-oxadiazol-3-yl)azetidin-1-yl]-3-oxoprop-1-en-1-yl}-3,4-dihydro-1,8-naphthyridin-2(1H)-one]
[2]
  IC50: 150 nM

## O=C1CCc2cc(/C=C/C(=O)N3CCC(O)(c4ccccc4)CC3)cnc2N1 [Example 14, 6-{(1E)-3-[4-Hydroxy-4-phenylpiperidin-1-yl]-3-oxoprop-1-en-1-yl}-3,4-dihydro-1,8-naphthyridin-2(1H)-one]
[2]
  IC50: 340 nM

## O=C1CCc2cc(/C=C/C(=O)N3CC(Oc4ccccc4)C3)cnc2N1 [Example 6, 6-[(1E)-3-Oxo-3-(3-phenoxyazetidin-1-yl)prop-1-en-1-yl]-3,4-dihydro-1,8-naphthyridin-2(1H)-one]
[2]
  IC50: 1000 nM

## COC(=O)C1Cc2cc(/C=C/C(=O)N3CCC(COc4ccc(F)cc4)CC3)cnc2NC1=O (stereo not shown) [Example 25, Methyl 6-[(1E)-3-{4-[(4-fluorophenoxy)methyl]piperidin-1-yl}-3-oxoprop-1-en-1-yl]-2-oxo-1,2,3,4-tetrahydro-1,8-naphthyridine-3-carboxylate]
[2]
  IC50: 60 nM

## CC(Cc1ncccn1)=NOC1CN(C(=O)/C=C/c2cnc3c(c2)CCC(=O)N3)C1 (racemic) [Example 21, 6-{(1E)-3-[3-({[(1E)-1-Methyl-2-pyrimidin-2-ylethylidene]amino}oxy)azetidin-1-yl]-3-oxoprop-1-en-1-yl}-3,4-dihydro-1,8-naphthyridin-2(1H)-one]
[2]
  IC50: 870 nM

## O=C1CCc2cc(/C=C/C(=O)N3CCC(Oc4cccnc4)C3)cnc2N1 (stereo not shown) [Example 16, 6-{(1E)-3-Oxo-3-[3-(pyridin-3-yloxy)pyrrolidin-1-yl]prop-1-en-1-yl}-3,4-dihydro-1,8-naphthyridin-2(1H)-one]
[2]
  IC50: 930 nM

## NC(=O)c1cc2cc(/C=C/C(=O)N3CCC(COc4ccc(F)cc4)CC3)cnc2[nH]c1=O [Example 27, 6-[(1E)-3-{4-[(4-Fluorophenoxy)methyl]piperidin-1-yl}-3-oxoprop-1-en-1-yl]-2-oxo-1,2-dihydro-1,8-naphthyridine-3-carboxamide]
[2]
  IC50: 550 nM

## NC(=O)C1Cc2cc(/C=C/C(=O)N3CCC(COc4ccc(F)cc4)CC3)cnc2NC1=O (stereo not shown) [Example 26, 6-[(1E)-3-{4-[(4-Fluorophenoxy)methyl]piperidin-1-yl}-3-oxoprop-1-en-1-yl]-2-oxo-1,2,3,4-tetrahydro-1,8-naphthyridine-3-carboxamide]
[2]
  IC50: 78 nM

## Nc1ccc(/C=C/C(=O)N2CC(OCc3ccncc3)C2)cn1 [Example 23, 5-{(1E)-3-Oxo-3-[3-(pyridin-4-ylmethoxy)azetidin-1-yl]prop-1-en-1-yl}pyridin-2-amine]
[2]
  IC50: 1800 nM
